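GI50 marks 50% less growth. Definition used: TGI = concentration required for complete inhibition of growth.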
Experiments:
Assay in all cases: DTP human tumour cell line panel, 384-well format
CCRF-CEM leukemia = system: CCRF-CEM leukemia
HOP-92 NSCLC = system: HOP-92 NSCLC
M14 melanoma = system: M14 melanoma
MDA-MB-468 breast = system: MDA-MB-468 breast
MOLT-4 leukemia = system: MOLT-4 leukemia
RPMI-8226 leukemia = system: RPMI-8226 leukemia
RXF 393 renal = system: RXF 393 renal
SF-539 CNS = system: SF-539 CNS
SN12C renal = system: SN12C renal
SNB-75 CNS = system: SNB-75 CNS
U251 glioblastoma = system: U251 glioblastoma
UACC-257 melanoma = system: UACC-257 melanoma
UO-31 renal = system: UO-31 renal

## NS(=O)(=O)NCCNc1nonc1C(=Nc1ccc(F)c(Br)c1)NO
CCRF-CEM leukemia
  GI50: 17.6 µM
  TGI: 35.3 µM
HOP-92 NSCLC
  GI50: 29.6 µM
  TGI: > 89.5 µM
M14 melanoma
  GI50: 38.9 µM
  TGI: > 100 µM
MDA-MB-468 breast
  GI50: 14.6 µM
  TGI: 33.1 µM
MOLT-4 leukemia
  GI50: 15.9 µM
  TGI: 29.8 µM
RPMI-8226 leukemia
  GI50: 17.6 µM
  TGI: 35.2 µM
RXF 393 renal
  GI50: 4.11 µM
  TGI: > 31.6 µM
SF-539 CNS
  TGI: > 100 µM
SN12C renal
  GI50: 35.2 µM
  TGI: > 100 µM
SNB-75 CNS
  GI50: 21.4 µM
  TGI: 60.2 µM
U251 glioblastoma
  GI50: 33.9 µM
  TGI: > 100 µM
UACC-257 melanoma
  GI50: 28.7 µM
  TGI: > 82.6 µM
UO-31 renal
  GI50: 36 µM
  TGI: > 100 µM

## CC1(N)CCN(c2cnc(-c3cccc(Cl)c3Cl)c(N)n2)CC1
CCRF-CEM leukemia
  GI50: 17 µM
  TGI: 31.2 µM
HOP-92 NSCLC
  GI50: 1.02 µM
  TGI: 8.17 µM
M14 melanoma
  GI50: 17.6 µM
  TGI: 31.5 µM
MDA-MB-468 breast
  GI50: 0.898 µM
  TGI: 5.96 µM
MOLT-4 leukemia
  GI50: 16.3 µM
  TGI: 30.7 µM
RPMI-8226 leukemia
  GI50: 13.9 µM
  TGI: 28.9 µM
RXF 393 renal
  GI50: 12.2 µM
  TGI: 25.5 µM
SF-539 CNS
  GI50: 13.9 µM
  TGI: 27.7 µM
SN12C renal
  GI50: 5.63 µM
  TGI: 42.7 µM
SNB-75 CNS
  GI50: 12.3 µM
  TGI: 38.2 µM
U251 glioblastoma
  GI50: 13.5 µM
  TGI: 27.4 µM
UACC-257 melanoma
  GI50: 16.4 µM
  TGI: 30.1 µM
UO-31 renal
  GI50: 14.2 µM
  TGI: > 100 µM
